According to patent publication US9745299B2, “Substituted tricyclic benzimidazoles as kinase inhibitors” (SELVITA SA, priority 2012, dated 2017):
Counter-ions that a name gives are not always drawn.

How the values were obtained:
CDK2/CyclinE = target: T1, CDK2/CyclinE (Homo sapiens, UniProt P24941); assay: ADP-Glo Kinase Assay, CDK2/CyclinE; type: biochemical; conditions: read-out: % inhibition at 1 μM CDK2/CyclinE
T1 construct: purchased Millipore, Billerica, Mass., USA
Experimental: (§1) Testing of the compounds described in this invention was carried out using the ADP-Glo™ Kinase Assay from Promega Corporation (Madison, Wis., USA).
(§2) The ADP-Glo™ Kinase Assay is a luminescent ADP detection assay to measure kinase activity by quantifying the amount of ADP produced during a kinase reaction. The kinase assay is performed in kinase assay buffer (5 mM MOPS, pH 7.5, 5 mM MgCl2, 0.4 mM EDTA, 1.5 mM DTT). Test samples initially dissolved in DMSO at 10 mM were diluted with the assay buffer to 1000 nM. A 30 μL volume/well of a mixture of substrates containing ATP (final ATP concentration in each kinase assay was equal to its apparent ATP Km).
(§3) The assay was performed in two steps: first, after the kinase reaction, an equal volume of ADP-Glo™ Reagent was added to terminate the kinase reaction and deplete the remaining ATP. Second, the Kinase Detection Reagent was added to simultaneously convert ADP to ATP and allowed the newly synthesized ATP to be measured using a luciferase/luciferin reaction. The luminescent signal generated was proportional to the ADP concentration produced and was correlated with kinase activity.

CDK9/CyclinT = target: T2, CDK9/CyclinT (Homo sapiens, UniProt P50750); assay: ADP-Glo Kinase Assay, CDK9/CyclinT; type: biochemical; conditions: read-out: % inhibition at 1 μM CDK9/CyclinT; further: ATP at apparent Km (26 µM)
T2 construct: purchased Proqinase, Freiburg, Germany
Experimental: as §1, §2, §3

CDK1/CyclinB = target: T3, CDK1/CyclinB (Homo sapiens, UniProt P06493); assay: ADP-Glo Kinase Assay, CDK1/CyclinB; type: biochemical; conditions: read-out: % inhibition at 1 μM CDK1/CyclinB; further: ATP at apparent Km (20 µM)
T3 construct: purchased Millipore, Billerica, Mass., USA
Experimental: Testing of the compounds described in this invention was carried out using the ADP-Glo™ Kinase Assay from Promega Corporation (Madison, Wis., USA). […] The ADP-Glo™ Kinase Assay is a luminescent ADP detection assay to measure kinase activity by quantifying the amount of ADP produced during a kinase reaction. The kinase assay is performed in kinase assay buffer (5 mM MOPS, pH 7.5, 5 mM MgCl2, 0.4 mM EDTA, 1.5 mM DTT). Test samples initially dissolved in DMSO at 10 mM were diluted with the assay buffer to 1000 nM. A 30 μL volume/well of a mixture of substrates containing ATP (final ATP concentration in each kinase assay was equal to its apparent ATP Km). […] The assay was performed in two steps: first, after the kinase reaction, an equal volume of ADP-Glo™ Reagent was added to terminate the kinase reaction and deplete the remaining ATP. Second, the Kinase Detection Reagent was added to simultaneously convert ADP to ATP and allowed the newly synthesized ATP to be measured using a luciferase/luciferin reaction. The luminescent signal generated was proportional to the ADP concentration produced and was correlated with kinase activity.

CDK8/CyclinC = target: T4, CDK8/CyclinC (Homo sapiens, UniProt P49336); assay: ADP-Glo Kinase Assay, CDK8/CyclinC; type: biochemical; conditions: read-out: % inhibition at 1 μM CDK8/CyclinC; further: ATP at apparent Km (53 µM)
T4 construct: purchased ProQinase, Freiburg, Germany
Experimental: as §1, §2, §3

HCT116 cells = assay: MTS viability assay, HCT116; type: cell-based; conditions: Homo sapiens, HCT-116, HCT116, 72 hour incubation, read-out: IC50 [μM] HCT116 ED50
Description: (§4) The viability of CDK8 expressing cells can be evaluated using a tetrazolium salt reduction cell-based assay. In viable cells this colorimetric assay can measure mitochondrial reduction of a tetrazolium component (MTS) into an […] formazan product. For MTS viability assay, human colon cancer cell lines were used (SW480 and HCT116 cell lines), containing elevated levels of CDK8 protein and highly dependent on its expression for proliferation [see, Firenstein et al. Nature 455 (25):547-551, (2008)]. These cell lines were used to determine the activity of the compounds provided herein to inhibit CDK8 in intact cells. Human tumor cell lines were obtained from ATCC (Rockville Md. USA). In each case, and by methods known to those practiced in the art of cell culture, vaiability was measured after 72 hour incubation with the compounds provided herein using a standard MTS protocol (CellTiter 96® AQueous Non-Radioactive Cell Proliferation Assay).
(§5) Briefly, cells were plated at 10,000-20,000 cells per well in DMEM medium supplemented with 10% fetal bovine serum. The compound plate was set up by aliquoting into column 1 of a 96-well plate, the negative control (DMSO), aliquoting into column 12 the positive control, and titrating the test compound in serial dilutions into columns 2-11. An aliquot from each well of the compound plate was transferred to the plated cells and then incubated at 37° C. in 5% CO2. 20 μL of MTS tetrazolium was added to each well of optical plate and the cells were incubated at 37° C. in 5% CO2 for 2 hours. The absorbance was measured at 490 nm using a microplate reader.

CDK7/CyclinH/MAT1 = target: T5, CDK7/CyclinH/MAT1 (Homo sapiens, UniProt P50613); assay: ADP-Glo Kinase Assay, CDK7/CyclinH/MAT1; type: biochemical; conditions: read-out: % inhibition at 1 μM CDK7/CyclinH/MAT1
T5 construct: purchased Millipore, Billerica, Mass., USA
Experimental: as §1, §2, §3

CDK5/p25 = target: T6, CDK5/p25 (Homo sapiens, UniProt Q00535); assay: ADP-Glo Kinase Assay, CDK5/p25; type: biochemical; conditions: read-out: % inhibition at 1 μM CDK5/p25; further: ATP at apparent Km (12 µM)
T6 construct: purchased Millipore, Billerica, Mass., USA
Experimental: as §1, §2, §3

SW480 cells = assay: MTS viability assay, SW480; type: cell-based; conditions: Homo sapiens, SW480, 72 hour incubation, read-out: IC50 [μM] SW-480 ED50
Description: as §4, §5

T4 sequence (P49336 whole entry): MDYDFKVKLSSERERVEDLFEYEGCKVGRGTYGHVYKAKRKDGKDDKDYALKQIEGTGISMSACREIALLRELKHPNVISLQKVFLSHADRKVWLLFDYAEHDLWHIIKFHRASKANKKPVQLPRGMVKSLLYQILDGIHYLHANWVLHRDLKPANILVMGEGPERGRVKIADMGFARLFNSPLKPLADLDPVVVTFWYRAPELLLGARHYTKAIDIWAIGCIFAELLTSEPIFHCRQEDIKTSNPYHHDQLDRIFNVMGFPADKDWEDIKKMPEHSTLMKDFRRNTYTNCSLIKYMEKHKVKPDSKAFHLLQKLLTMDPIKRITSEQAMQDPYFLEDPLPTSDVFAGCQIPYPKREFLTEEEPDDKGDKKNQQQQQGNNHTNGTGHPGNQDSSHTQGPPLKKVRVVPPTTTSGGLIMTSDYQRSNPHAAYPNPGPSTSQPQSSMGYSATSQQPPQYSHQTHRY
T4 sequence (P24863 whole entry partner): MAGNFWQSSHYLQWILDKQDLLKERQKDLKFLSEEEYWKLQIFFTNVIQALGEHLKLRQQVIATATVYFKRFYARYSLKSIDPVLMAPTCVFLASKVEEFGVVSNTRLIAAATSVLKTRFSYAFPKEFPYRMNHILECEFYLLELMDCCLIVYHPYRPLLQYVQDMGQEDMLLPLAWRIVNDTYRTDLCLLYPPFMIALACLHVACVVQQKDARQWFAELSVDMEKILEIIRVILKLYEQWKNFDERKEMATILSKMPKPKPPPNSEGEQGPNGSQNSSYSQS
T3 sequence (P06493 whole entry): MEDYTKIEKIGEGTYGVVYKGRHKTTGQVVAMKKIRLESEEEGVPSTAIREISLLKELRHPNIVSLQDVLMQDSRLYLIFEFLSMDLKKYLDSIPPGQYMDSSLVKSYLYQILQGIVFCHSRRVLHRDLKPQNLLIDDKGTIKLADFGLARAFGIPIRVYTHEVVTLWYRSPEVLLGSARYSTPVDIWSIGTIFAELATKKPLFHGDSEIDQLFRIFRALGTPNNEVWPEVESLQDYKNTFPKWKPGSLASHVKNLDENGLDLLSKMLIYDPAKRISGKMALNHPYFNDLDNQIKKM
T3 sequence (P14635 whole entry partner): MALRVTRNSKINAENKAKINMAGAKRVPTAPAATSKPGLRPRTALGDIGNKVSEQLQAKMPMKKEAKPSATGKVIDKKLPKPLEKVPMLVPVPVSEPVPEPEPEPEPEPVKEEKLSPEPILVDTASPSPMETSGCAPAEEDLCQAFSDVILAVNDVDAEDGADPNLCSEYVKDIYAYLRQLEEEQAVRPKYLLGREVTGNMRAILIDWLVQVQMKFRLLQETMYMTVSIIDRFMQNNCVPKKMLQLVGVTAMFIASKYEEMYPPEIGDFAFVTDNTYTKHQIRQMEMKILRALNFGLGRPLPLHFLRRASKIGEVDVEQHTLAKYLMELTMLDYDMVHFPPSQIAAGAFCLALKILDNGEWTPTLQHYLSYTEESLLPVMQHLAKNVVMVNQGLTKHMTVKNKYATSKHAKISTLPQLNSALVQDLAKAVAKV
T2 sequence (P50750 whole entry): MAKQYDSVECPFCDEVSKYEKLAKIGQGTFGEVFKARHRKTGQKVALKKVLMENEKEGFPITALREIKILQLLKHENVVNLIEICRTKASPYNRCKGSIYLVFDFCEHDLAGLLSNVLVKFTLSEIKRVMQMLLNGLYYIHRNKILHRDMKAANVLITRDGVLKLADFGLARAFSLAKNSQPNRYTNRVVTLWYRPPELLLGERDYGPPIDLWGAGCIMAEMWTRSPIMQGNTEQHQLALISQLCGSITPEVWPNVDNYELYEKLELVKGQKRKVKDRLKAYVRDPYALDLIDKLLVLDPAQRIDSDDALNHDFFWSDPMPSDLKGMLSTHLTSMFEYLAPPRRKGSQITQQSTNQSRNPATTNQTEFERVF
T2 sequence (O60563 whole entry partner): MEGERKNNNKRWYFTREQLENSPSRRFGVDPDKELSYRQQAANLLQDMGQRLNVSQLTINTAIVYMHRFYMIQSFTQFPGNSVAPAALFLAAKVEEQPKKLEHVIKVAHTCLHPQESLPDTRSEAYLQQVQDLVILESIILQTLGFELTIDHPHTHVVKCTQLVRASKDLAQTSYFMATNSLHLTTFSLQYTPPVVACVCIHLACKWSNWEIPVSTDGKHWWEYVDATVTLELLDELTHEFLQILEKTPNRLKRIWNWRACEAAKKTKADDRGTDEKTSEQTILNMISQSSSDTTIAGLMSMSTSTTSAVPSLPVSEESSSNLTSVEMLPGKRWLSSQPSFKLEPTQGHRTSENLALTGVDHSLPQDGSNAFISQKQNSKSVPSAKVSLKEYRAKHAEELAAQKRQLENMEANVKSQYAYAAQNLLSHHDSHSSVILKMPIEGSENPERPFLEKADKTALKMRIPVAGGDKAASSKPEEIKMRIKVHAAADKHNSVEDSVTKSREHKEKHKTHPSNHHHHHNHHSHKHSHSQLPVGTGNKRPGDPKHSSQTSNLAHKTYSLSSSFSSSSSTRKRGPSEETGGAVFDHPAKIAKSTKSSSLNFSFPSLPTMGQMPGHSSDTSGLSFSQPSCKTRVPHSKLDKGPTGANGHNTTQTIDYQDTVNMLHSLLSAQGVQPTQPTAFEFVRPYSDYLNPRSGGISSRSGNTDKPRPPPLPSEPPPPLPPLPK
T6 sequence (Q00535 whole entry): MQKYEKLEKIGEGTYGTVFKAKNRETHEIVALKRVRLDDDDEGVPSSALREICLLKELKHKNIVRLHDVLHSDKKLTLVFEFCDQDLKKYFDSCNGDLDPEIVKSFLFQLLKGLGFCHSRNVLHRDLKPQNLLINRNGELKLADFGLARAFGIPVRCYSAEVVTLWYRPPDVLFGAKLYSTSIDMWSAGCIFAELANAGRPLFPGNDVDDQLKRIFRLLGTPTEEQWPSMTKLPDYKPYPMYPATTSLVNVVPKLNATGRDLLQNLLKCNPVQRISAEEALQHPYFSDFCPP
T6 sequence (Q15078 99-307 partner limits assumed): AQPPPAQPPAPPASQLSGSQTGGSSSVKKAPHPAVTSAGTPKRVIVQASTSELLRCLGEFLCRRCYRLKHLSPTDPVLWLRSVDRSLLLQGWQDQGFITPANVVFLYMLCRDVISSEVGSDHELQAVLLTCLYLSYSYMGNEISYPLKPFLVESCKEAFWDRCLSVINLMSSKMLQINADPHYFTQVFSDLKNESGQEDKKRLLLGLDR
T5 sequence (P50613 whole entry): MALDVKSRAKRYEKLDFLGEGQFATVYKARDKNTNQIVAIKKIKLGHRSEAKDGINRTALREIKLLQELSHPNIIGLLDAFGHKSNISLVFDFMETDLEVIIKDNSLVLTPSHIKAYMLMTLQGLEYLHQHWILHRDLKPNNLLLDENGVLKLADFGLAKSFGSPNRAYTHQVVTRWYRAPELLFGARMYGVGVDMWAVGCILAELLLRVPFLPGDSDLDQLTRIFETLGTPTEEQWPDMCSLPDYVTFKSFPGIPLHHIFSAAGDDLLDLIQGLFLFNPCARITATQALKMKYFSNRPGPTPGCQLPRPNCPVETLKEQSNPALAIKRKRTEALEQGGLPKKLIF
T5 sequence (P51946 whole entry partner): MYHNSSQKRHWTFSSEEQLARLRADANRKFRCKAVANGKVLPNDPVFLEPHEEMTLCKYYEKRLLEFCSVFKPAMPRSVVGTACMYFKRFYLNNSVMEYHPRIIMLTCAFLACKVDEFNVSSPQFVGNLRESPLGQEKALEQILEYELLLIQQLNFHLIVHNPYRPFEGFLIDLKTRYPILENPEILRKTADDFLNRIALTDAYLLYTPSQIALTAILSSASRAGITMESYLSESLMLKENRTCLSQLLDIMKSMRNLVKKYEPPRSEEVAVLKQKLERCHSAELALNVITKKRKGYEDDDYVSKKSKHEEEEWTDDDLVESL
T5 sequence (P51948 whole entry partner): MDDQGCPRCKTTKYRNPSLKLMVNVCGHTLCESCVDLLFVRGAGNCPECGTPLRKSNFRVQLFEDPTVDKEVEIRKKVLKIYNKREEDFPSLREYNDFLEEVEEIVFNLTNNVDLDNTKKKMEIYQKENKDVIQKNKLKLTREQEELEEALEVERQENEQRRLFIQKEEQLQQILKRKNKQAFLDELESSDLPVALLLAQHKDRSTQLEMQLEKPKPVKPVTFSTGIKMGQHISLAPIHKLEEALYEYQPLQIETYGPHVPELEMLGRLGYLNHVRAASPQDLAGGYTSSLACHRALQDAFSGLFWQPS

Structure (SMILES) | inhibition at 1 µM (CDK2/CyclinE) | inhibition at 1 µM (CDK9/CyclinT) | inhibition at 1 µM (CDK1/CyclinB) | inhibition at 1 µM (CDK8/CyclinC) | IC50 (HCT116 cells) | inhibition at 1 µM (CDK7/CyclinH/MAT1) | inhibition at 1 µM (CDK5/p25) | IC50 (SW480 cells)
NCCNc1nc2c(Br)c(Br)c(Br)c3c2n1CCC3 [Example 1A, N-(7,8,9-tribromo-5,6-dihydro-4H-imidazo[4,5,1-ij]quinolin-2-yl)ethane-1,2-diamine hydrochloride] | 0% | 33% | 0% | 52% | 1.2 µM | 0% | 0% | 1.9 µM
Cc1c(Br)c2c3c(nc(N4CCNCC4)n3CCC2)c1Br [Example 1AX] | 1% | 7% | 7% | 70% | 1.5 µM |  |  | 
NCCNc1nc2c(I)c(Br)c(Br)c3c2n1CCC3 [Example 1W] | 0% | 13% | 7% | 100% |  | 0% | 2% | 
O=[N+]([O-])c1c(Br)c(Br)c2c3c1nc(N1CCNCC1)n3CCC2 [Example 1X] | 8% | 9% | 15% | 71% | 6.7 µM | 0% | 27% | 1.4 µM
C[C@H]1CN(c2nc3c(Br)c(Br)c(Br)c4c3n2CCC4)CCN1 [Example 3AA] | 20% | 21% |  | 96% | 0.4 µM |  |  | 1.3 µM
Brc1c(Br)c2c3c(nc(N4CCCCC4)n3CCC2)c1Br [Example 3D] | 0% | 20% | 2% | 87% |  | 11% | 0% | 
CN1CCN(c2nc3c(Br)c(Br)c(Br)c4c3n2CCC4)CC1 [Example 3M] | 2% | 17% | 7% | 75% | 1.2 µM | 0% | 36% | 2.3 µM
CC1CCCN1c1nc2c(Br)c(Br)c(Br)c3c2n1CCC3 (stereo not shown) [Example 3R] | 0% | 4% | 0% | 100% |  | 36% | 4% | 
C[C@H]1CN(c2nc3c(I)c(Br)c(Br)c4c3n2CCC4)CCN1 [Example 3T] | 17% | 21% |  | 90% | 1.6 µM |  |  | 1.3 µM
CC1(C)CN(c2nc3c(I)c(Br)c(Br)c4c3n2CCC4)CCN1 [Example 3W] | 8% | 10% |  | 92% | 1.5 µM |  |  | 1.4 µM
CN1CCC(c2nc3c(Br)c(Br)c(Br)c4c3n2CCC4)CC1 [Example 7B] | 14% | 6% |  | 88% | 2.6 µM |  |  | 6.3 µM
N#Cc1c(Br)c(Br)c2c3c1nc(N1CCNCC1)n3CCC2 [Example 8B] | 0% | 20% |  | 90% | 1.7 µM |  |  | 4.1 µM

Second part, the molecule after the results:

inhibition at 1 µM (CDK2/CyclinE) | inhibition at 1 µM (CDK9/CyclinT) | inhibition at 1 µM (CDK1/CyclinB) | inhibition at 1 µM (CDK8/CyclinC) | IC50 (HCT116 cells) | inhibition at 1 µM (CDK7/CyclinH/MAT1) | inhibition at 1 µM (CDK5/p25) | IC50 (SW480 cells) | Structure (SMILES)
8% | 9% | 0% | 52% |  |  |  |  | NCCCNc1nc2c(Br)c(Br)c(Br)c3c2n1CCC3 [Example 1C]
11% | 39% | 32% | 100% | 1.3 µM | 0% | 4% | 0.7 µM | Brc1c(Br)c2c3c(nc(N4CCNCC4)n3CCC2)c1I [Example 1Y]
4% | 1% | 0% | 61% |  | 3% | 0% |  | OC1CCN(c2nc3c(Br)c(Br)c(Br)c4c3n2CCC4)CC1 [Example 3A, 1-(7,8,9-tribromo-5,6-dihydro-4H-imidazo[4,5,1-ij]quinolin-2-yl)piperidin-4-ol]
27% | 47% |  | 84% | 0.4 µM |  |  | 1.4 µM | C[C@@H]1CN(c2nc3c(Br)c(Br)c(Br)c4c3n2CCC4)CCN1 [Example 3AB]
16% | 42% |  | 100% | 0.6 µM |  |  | 1.3 µM | C[C@@H]1CN(c2nc3c(I)c(Br)c(Br)c4c3n2CCC4)CCN1 [Example 3AD]
40% | 39% |  | 100% | 2.8 µM |  |  | 4 µM | CN1CCN(c2nc3c(I)c(Br)c(Br)c4c3n2CCC4)CC1 [Example 3AM]
0% | 14% | 0% | 85% | 6.8 µM | 0% | 14% | 5 µM | CCN(CC)c1nc2c(Br)c(Br)c(Br)c3c2n1CCC3 [Example 3I]
1% | 34% | 0% | 58% |  | 0% | 53% |  | Nc1nc2c(Br)c(Br)c(Br)c3c2n1CCC3 [Example 3J]
5% | 22% | 8% | 88% | 9.3 µM | 16% | 0% | 1.4 µM | CC1CN(c2nc3c(Br)c(Br)c(Br)c4c3n2CCC4)CCN1 (stereo not shown) [Example 3P]
6% | 19% | 0% | 92% | 1.3 µM | 0% | 0% | 1.3 µM | Cc1c(Br)c(Br)c2c3c1nc(C1CCN(C)CC1)n3CCC2 [Example 7A, 7,8-dibromo-9-methyl-2-(1-methylpiperidin-4-yl)-5,6-dihydro-4H-imidazo[4,5,1-ij]quinoline hydrochloride]
7% | 20% | 0% | 83% | 1.1 µM | 0% | 0% | 0.9 µM | Cc1c(Br)c(Br)c2c3c1nc(C1CCNCC1)n3CCC2 [Example 7C]
22% | 39% | 43% | 94% | 0.3 µM | 15% | 5% | 0.6 µM | Brc1c(Br)c2c3c(nc(C4CCNCC4)n3CCC2)c1Br [Example 7E]
